Experimental data as given in US20220202739A1, “ENDOCANNABINOID MIMETIC AND ANTI-INFLAMMATORY COMPOUND CONTAINING COMPOSITIONS, METHODS OF PREPARATION AND USES THEREOF” (priority 2019, published 2022).

Experiments:
Type in all cases: cell-based, human
Conditions in all cases: pooled keratinocytes, 20 ppm, 24 hr
JUN = test: Gene expression custom microarray, pooled keratinocyte line (Example 3): JUN
Description: (§1) Cell cultures: Received and began culture of pooled keratinocyte line from Promocell (C-12006; Lot #448Z026). Cells were seeded into a 75 cm2 flask and 2 6 well dishes for expansion and exposure per manufacturer's protocol using Keratinocyte Growth Medium (C2011B), Keratinocyte Supplement Mix (C39016) and CaCl (C34005). 2 ml of prepared solution were added to each of the 6 wells and 7 ml was added to the 75 cm2 flask.
(§2) Experimental phase: When the appropriate quantity of cells were grown, they were detached as described above, but at the final step were seeded into each well of one or more 6 well dishes. Each well received 2 ml of the cells suspended in suspension so they were seeded equally. The dishes were returned to the incubator until 85-95% confluency is reached.
(§3) It was at this stage that all wells were rinsed in PBS after aspirating the growth media. The compound(s) to be tested were previously mixed into a suitable solvent (e.g., DMSO or ethanol) that can be diluted to the desired concentration of test compound (10 μl) in the culture wells without exceeding maximum solvent concentrations and adversely effecting cell viability, and mixed with Basal Keratinocyte Media. NOTE: Standard maximum levels of solvent are 0.1% for DMSO and 0.5% for ETOH. The concentration for each tested compound/natural extract is generally listed in the left-hand column of Table 4. For certain compositions (e.g., compositions 15 and 16), other concentrations were used and are noted in the body of Table 4.
(§4) Every 2 wells on the 6 well plate served as a biological replicate for the purposes of RNA isolation and genetic expression evaluations making each 6 well dish an n=3 for the test compound contained in the media. […]
(§5) At the end of the 24 hr time period, the plates were removed from the incubator, the test media aspirated, and the cells rinsed with PBS. […] Allow 1 minute for saturation of the membrane and then centrifuge for 2 minutes to complete the RNA elution. • Quantify the quantity of RNA and store at −20 C° until use (no more than 1 month) […]

ITGB1 = test: Gene expression custom microarray, pooled keratinocyte line (Example 3): ITGB1
Description: as §1, §2, §3, §4, §5

COL1A1 = test: Gene expression custom microarray, pooled keratinocyte line (Example 3): COL1A1
Description: as §1, §2, §3, §4, §5

TLR2 = test: Gene expression custom microarray, pooled keratinocyte line (Example 3): TLR2
Description: as §1, §2, §3, §4, §5

CERS3 = test: Gene expression custom microarray, pooled keratinocyte line (Example 3): CERS3
Description: as §1, §2, §3, §4, §5

C=C(C)[C@@H]1CCC(C)=C[C@H]1c1c(O)cc(CCCCC)cc1O [CBD, cannabidiol, reference compound]
↓JUN gene expression, fold increase or decrease vs untreated cells (JUN): 2.7 fold | ↑ITGB1 gene expression, fold increase or decrease vs untreated cells (ITGB1): 1.8 fold | ↑COL1A1 gene expression, fold increase or decrease vs untreated cells (COL1A1): 1.6 fold | ↑TLR2 gene expression, fold increase or decrease vs untreated cells (TLR2): 2.8 fold | ↑CERS3 gene expression, fold increase or decrease vs untreated cells (CERS3): 1.7 fold

CCCCCCCCCCCCCCCC(=O)NCCO [N-palmitoylethanolamide]
↓JUN gene expression, fold increase or decrease vs untreated cells (JUN): −1.9 fold | ↑ITGB1 gene expression, fold increase or decrease vs untreated cells (ITGB1): −4 fold | ↑COL1A1 gene expression, fold increase or decrease vs untreated cells (COL1A1): −2 fold | ↑TLR2 gene expression, fold increase or decrease vs untreated cells (TLR2): −1.3 fold | ↑CERS3 gene expression, fold increase or decrease vs untreated cells (CERS3): 2 fold

CC(C)[C@]12O[C@H]1[C@@H]1O[C@]13[C@]1(O[C@H]1C[C@H]1C4=C(CC[C@@]13C)C(=O)OC4)[C@@H]2O [Triptolide]
↓JUN gene expression, fold increase or decrease vs untreated cells (JUN): −4.7 fold | ↑ITGB1 gene expression, fold increase or decrease vs untreated cells (ITGB1): −14.7 fold | ↑COL1A1 gene expression, fold increase or decrease vs untreated cells (COL1A1): −1.3 fold | ↑TLR2 gene expression, fold increase or decrease vs untreated cells (TLR2): −2.9 fold | ↑CERS3 gene expression, fold increase or decrease vs untreated cells (CERS3): −1.5 fold
